“And” between values parts separate entries of the source, which are not always exact repeats. Equal values may be shown once. Read-outs that look alike come from different tables or passages of the source.
Experiments:
BV2 cells = assay: MTT cell viability assay; assay type: cell-based, mouse
[1] = tested on: LPS-induced NO release of BV2 microglial cells; assay: Nitrite quantification; assay type: cell-based, mouse; conditions: 1 h pretreatment, LPS 800 ng/ml 24 h
[2] = Mus musculus, BV-2, read-out: Cell viability IC50

| Compound | IC50 (BV2 cells; [2]) [µM] | NO Inhibition (% of LPS) LPS/drugs (0.7 μM) [1] | NO Inhibition (% of LPS) LPS/drugs (1.5 μM) [1] | NO Inhibition (% of LPS) LPS/drugs (3 μM) ([1]; 3 μM) | NO Inhibition (% of LPS) LPS/drugs (12 μM) ([1]; 12 μM) | NO Inhibition (% of LPS) LPS/drugs (25 μM) ([1]; 25 μM) | NO Inhibition (% of LPS) LPS/drugs (50 μM) ([1]; 50 μM) | IC50 (BV2 cells; read-out: Cell viability IC50, BV2 microglial cells) [µM] |
| --- | --- | --- | --- | --- | --- | --- | --- | --- |
| CC[C@]12C=CCN3CC[C@]4(C(=C(C(=O)OC)C1)Nc1ccccc14)[C@@H]32 [Compound 7, tabersonine] | 16.1 ± 1.1 | 18.8 ± 7.0 % of LPS | 29.3 ± 3.1 % of LPS | 45.9 ± 2.4 % of LPS |  |  |  |  |
| C[C@@H]1C[C@H]2[C@@H]3CCC4=CC(=O)C=C[C@]4(C)[C@@]3(F)[C@@H](O)C[C@]2(C)[C@@]1(O)C(=O)CO [Dexamethasone, reference compound] | > 100 |  |  |  | 61.9 ± 4.7 % of LPS | 71.1 % of LPS and 71.1 ± 3.0 % of LPS | 75.1 ± 1.9 % of LPS |  |
| lochnericine [Compound 2] |  | 11.2 ± 2.0 % of LPS | 31.3 ± 3.2 % of LPS |  |  |  |  | 28.7 ± 1.2 |
